Test results as given in patent publication US10414811B2, “Protease-resistant lipidated GLP-1 analogs” (MEDIMMUNE LIMITED, priority 2015, dated 2019).
Where two headings read alike, the source gives them in different places.

Experiments:
Type in all cases: cell-based
[1] = target: T1, human GLP-1 receptor (GLP-1R) (Homo sapiens, UniProt P43220); assay: cAMP assay, human GLP-1R cells
T1 construct: expressed in transfected cells
How it was run: (§1)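 Peptide-stimulated cAMP measured by two-step HTRF after a 30 min room-temperature incubation with receptor-expressing cells (hGLP-1R, hGIPR at 1×10^5 cells/ml; hGCGR at 2×10^5 cells/ml). Duplicate dilutions; EC50 from 4-parameter logistic fit of % Delta F.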

[2] = target: T2, human glucagon receptor (GCGR) (Homo sapiens, UniProt P47871); assay: cAMP assay, human GCGR cells; details: cAMP assay
T2 construct: expressed in transfected cells
T2 sequence (P47871 26-477): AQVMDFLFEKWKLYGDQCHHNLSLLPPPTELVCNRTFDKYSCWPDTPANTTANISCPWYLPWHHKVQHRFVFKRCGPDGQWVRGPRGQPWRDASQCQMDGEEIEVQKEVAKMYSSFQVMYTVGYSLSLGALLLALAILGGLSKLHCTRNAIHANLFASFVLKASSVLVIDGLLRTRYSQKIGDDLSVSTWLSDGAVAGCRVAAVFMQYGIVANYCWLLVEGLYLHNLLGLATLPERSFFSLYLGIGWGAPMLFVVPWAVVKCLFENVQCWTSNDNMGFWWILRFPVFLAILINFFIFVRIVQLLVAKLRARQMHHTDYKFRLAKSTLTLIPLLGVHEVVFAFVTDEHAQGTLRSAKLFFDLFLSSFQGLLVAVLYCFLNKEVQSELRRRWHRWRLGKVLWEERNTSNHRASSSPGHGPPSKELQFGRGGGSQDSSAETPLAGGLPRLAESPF
How it was run: as §1

[3] = target: T3, human glucose-dependent insulinotropic peptide receptor (GIPR) (Homo sapiens, UniProt P48546); assay: cAMP assay, human GIPR cells; details: cAMP assay
T3 construct: expressed in transfected cells
T3 sequence (P48546 22-466): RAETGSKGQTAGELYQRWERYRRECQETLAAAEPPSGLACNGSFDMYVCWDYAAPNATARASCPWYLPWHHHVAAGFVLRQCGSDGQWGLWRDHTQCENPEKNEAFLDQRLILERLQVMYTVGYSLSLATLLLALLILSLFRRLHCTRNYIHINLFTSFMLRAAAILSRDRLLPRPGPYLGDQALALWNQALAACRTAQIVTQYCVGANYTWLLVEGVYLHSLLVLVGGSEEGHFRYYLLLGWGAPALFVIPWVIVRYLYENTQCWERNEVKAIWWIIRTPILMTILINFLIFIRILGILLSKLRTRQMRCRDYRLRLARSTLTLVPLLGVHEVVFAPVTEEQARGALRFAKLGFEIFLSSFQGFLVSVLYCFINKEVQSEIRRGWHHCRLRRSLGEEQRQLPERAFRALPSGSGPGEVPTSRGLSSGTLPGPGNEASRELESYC
How it was run: as §1

[4] = cAMP assay, first determination (n1), read-out: Primary assay EC50 GLP-1R n1
[5] = cAMP assay, second determination (n2), read-out: Primary assay EC50 GLP-1R n2
[6] = mean of n1 and n2, read-out: Mean pM GLP-1R
[7] = first determination (n1), read-out: Primary assay EC50 Gluc-R (n1)
[8] = second determination (n2), read-out: Primary assay EC50 Gluc-R (n2)
[9] = first determination (n1), read-out: Primary assay EC50 GIP-R (n1)
[10] = second determination (n2), read-out: Primary assay EC50 GIP-R (n2)

T1 sequence (P43220 24-463): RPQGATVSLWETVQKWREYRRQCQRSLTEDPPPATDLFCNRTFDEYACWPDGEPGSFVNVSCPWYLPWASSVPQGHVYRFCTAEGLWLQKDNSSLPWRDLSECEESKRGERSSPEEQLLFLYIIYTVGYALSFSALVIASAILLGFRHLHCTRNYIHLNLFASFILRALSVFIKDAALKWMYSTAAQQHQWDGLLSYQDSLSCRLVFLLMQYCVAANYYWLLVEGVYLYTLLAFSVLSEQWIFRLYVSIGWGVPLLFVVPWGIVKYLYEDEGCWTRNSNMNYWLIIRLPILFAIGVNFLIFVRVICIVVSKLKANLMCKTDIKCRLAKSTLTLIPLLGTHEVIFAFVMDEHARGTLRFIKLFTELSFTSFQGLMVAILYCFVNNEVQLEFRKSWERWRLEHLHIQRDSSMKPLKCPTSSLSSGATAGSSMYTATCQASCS

SMILES | EC50 [1, 4] [pM] | EC50 [1, 5] [pM] | EC50 [1, 6] [pM] | EC50 [2, 7] [nM] | EC50 [2, 8] [nM] | EC50 [3, 9] [nM] | EC50 [3, 10] [nM]
CC[C@H](C)[C@H](NC(=O)[C@](C)(Cc1ccccc1)NC(=O)[C@H](CCC(=O)O)NC(=O)[C@H](CCCCNC(=O)COCCOCCNC(=O)COCCOCCNC(=O)COCCOCCNC(=O)CCCCCCCCCCCCCCCCC(=O)O)NC(=O)[C@H](C)NC(=O)[C@H](C)NC(=O)[C@H](CCC(=O)O)NC(=O)CNC(=O)[C@H](CCC(=O)O)NC(=O)[C@H](CC(C)C)NC(=O)[C@](C)(Cc1ccccc1)NC(=O)[C@H](CO)NC(=O)[C@](C)(CO)NC(=O)[C@@H](NC(=O)[C@H](CC(=O)O)NC(=O)[C@H](CO)NC(=O)[C@@H](NC(=O)[C@](C)(Cc1ccccc1)NC(=O)[C@H](CO)NC(=O)CNC(=O)[C@H](CCC(=O)O)NC(=O)C(C)(C)NC(=O)[C@@H](N)Cc1c[nH]cn1)[C@@H](C)O)C(C)C)C(=O)N[C@@H](C)C(=O)N[C@@](C)(Cc1ccccc1)C(=O)N[C@H](C(=O)N[C@H](C(=O)N[C@@](C)(CCCCN)C(=O)NCC(=O)NCC(N)=O)C(C)C)C(C)C [compound 163] | 63 | 49 | 56 | ≥ 25 | ≥ 25 | ≥ 25 | ≥ 25
CCCCCCCCCCCC(=O)N[C@@H](CCC(=O)NCCCC[C@H](NC(=O)[C@@H](NC(=O)[C@@H](NC(=O)[C@](C)(Cc1ccccc1)NC(=O)[C@H](C)NC(=O)[C@@H](NC(=O)[C@](C)(Cc1ccccc1)NC(=O)[C@H](CCC(=O)O)NC(=O)[C@](C)(CCCCN)NC(=O)[C@H](C)NC(=O)[C@H](C)NC(=O)[C@H](CCC(=O)O)NC(=O)CNC(=O)[C@H](CCC(=O)O)NC(=O)[C@H](CC(C)C)NC(=O)[C@](C)(Cc1ccccc1)NC(=O)[C@H](CO)NC(=O)[C@](C)(CO)NC(=O)[C@@H](NC(=O)[C@H](CC(=O)O)NC(=O)[C@H](CO)NC(=O)[C@@H](NC(=O)[C@](C)(Cc1ccccc1)NC(=O)[C@H](CO)NC(=O)CNC(=O)[C@H](CCC(=O)O)NC(=O)C(C)(C)NC(=O)[C@@H](N)Cc1c[nH]cn1)[C@@H](C)O)C(C)C)[C@@H](C)CC)C(C)C)C(C)C)C(=O)NCC(=O)NCC(N)=O)C(=O)O [compound 164] | 22 | 7.8 | 14.6 | ≥ 28 | ≥ 28 | ≥ 28 | ≥ 28
CCCCCCCCCCCC(=O)N[C@@H](CCC(=O)N[C@@H](CCC(=O)NCCCC[C@H](NC(=O)[C@@H](NC(=O)[C@@H](NC(=O)[C@](C)(Cc1ccccc1)NC(=O)[C@H](C)NC(=O)[C@@H](NC(=O)[C@](C)(Cc1ccccc1)NC(=O)[C@H](CCC(=O)O)NC(=O)[C@](C)(CCCCN)NC(=O)[C@H](C)NC(=O)[C@H](C)NC(=O)[C@H](CCC(=O)O)NC(=O)CNC(=O)[C@H](CCC(=O)O)NC(=O)[C@H](CC(C)C)NC(=O)[C@](C)(Cc1ccccc1)NC(=O)[C@H](CO)NC(=O)[C@](C)(CO)NC(=O)[C@@H](NC(=O)[C@H](CC(=O)O)NC(=O)[C@H](CO)NC(=O)[C@@H](NC(=O)[C@](C)(Cc1ccccc1)NC(=O)[C@H](CO)NC(=O)CNC(=O)[C@H](CCC(=O)O)NC(=O)C(C)(C)NC(=O)[C@@H](N)Cc1c[nH]cn1)[C@@H](C)O)C(C)C)[C@@H](C)CC)C(C)C)C(C)C)C(=O)NCC(=O)NCC(N)=O)C(=O)O)C(=O)O [compound 165] | 14 | 6 | 10.2 | ≥ 27 | ≥ 27 | ≥ 27 | ≥ 27
CCCCCCCCCCCC(=O)NCCCCCC(=O)NCCCC[C@H](NC(=O)[C@@H](NC(=O)[C@@H](NC(=O)[C@](C)(Cc1ccccc1)NC(=O)[C@H](C)NC(=O)[C@@H](NC(=O)[C@](C)(Cc1ccccc1)NC(=O)[C@H](CCC(=O)O)NC(=O)[C@](C)(CCCCN)NC(=O)[C@H](C)NC(=O)[C@H](C)NC(=O)[C@H](CCC(=O)O)NC(=O)CNC(=O)[C@H](CCC(=O)O)NC(=O)[C@H](CC(C)C)NC(=O)[C@](C)(Cc1ccccc1)NC(=O)[C@H](CO)NC(=O)[C@](C)(CO)NC(=O)[C@@H](NC(=O)[C@H](CC(=O)O)NC(=O)[C@H](CO)NC(=O)[C@@H](NC(=O)[C@](C)(Cc1ccccc1)NC(=O)[C@H](CO)NC(=O)CNC(=O)[C@H](CCC(=O)O)NC(=O)C(C)(C)NC(=O)[C@@H](N)Cc1c[nH]cn1)[C@@H](C)O)C(C)C)[C@@H](C)CC)C(C)C)C(C)C)C(=O)NCC(=O)NCC(N)=O [compound 167] | 13 | 6.9 | 10 | ≥ 29 | ≥ 29 | ≥ 29 | ≥ 29
CCCCCCCCCCCCCCCCCC(=O)N[C@@H](CCC(=O)NCCCC[C@H](NC(=O)[C@@H](NC(=O)[C@@H](NC(=O)[C@](C)(Cc1ccccc1)NC(=O)[C@H](C)NC(=O)[C@@H](NC(=O)[C@](C)(Cc1ccccc1)NC(=O)[C@H](CCC(=O)O)NC(=O)[C@](C)(CCCCN)NC(=O)[C@H](C)NC(=O)[C@H](C)NC(=O)[C@H](CCC(=O)O)NC(=O)CNC(=O)[C@H](CCC(=O)O)NC(=O)[C@H](CC(C)C)NC(=O)[C@](C)(Cc1ccccc1)NC(=O)[C@H](CO)NC(=O)[C@](C)(CO)NC(=O)[C@@H](NC(=O)[C@H](CC(=O)O)NC(=O)[C@H](CO)NC(=O)[C@@H](NC(=O)[C@](C)(Cc1ccccc1)NC(=O)[C@H](CO)NC(=O)CNC(=O)[C@H](CCC(=O)O)NC(=O)C(C)(C)NC(=O)[C@@H](N)Cc1c[nH]cn1)[C@@H](C)O)C(C)C)[C@@H](C)CC)C(C)C)C(C)C)C(=O)NCC(=O)NCC(N)=O)C(=O)O [compound 182] | 130 | 52 | 89.9 | ≥ 28 | ≥ 28 | ≥ 28 | ≥ 28
CCCCCCCCCCCCCCCCCC(=O)N[C@@H](CCC(=O)N[C@@H](CCC(=O)NCCCC[C@H](NC(=O)[C@@H](NC(=O)[C@@H](NC(=O)[C@](C)(Cc1ccccc1)NC(=O)[C@H](C)NC(=O)[C@@H](NC(=O)[C@](C)(Cc1ccccc1)NC(=O)[C@H](CCC(=O)O)NC(=O)[C@](C)(CCCCN)NC(=O)[C@H](C)NC(=O)[C@H](C)NC(=O)[C@H](CCC(=O)O)NC(=O)CNC(=O)[C@H](CCC(=O)O)NC(=O)[C@H](CC(C)C)NC(=O)[C@](C)(Cc1ccccc1)NC(=O)[C@H](CO)NC(=O)[C@](C)(CO)NC(=O)[C@@H](NC(=O)[C@H](CC(=O)O)NC(=O)[C@H](CO)NC(=O)[C@@H](NC(=O)[C@](C)(Cc1ccccc1)NC(=O)[C@H](CO)NC(=O)CNC(=O)[C@H](CCC(=O)O)NC(=O)C(C)(C)NC(=O)[C@@H](N)Cc1c[nH]cn1)[C@@H](C)O)C(C)C)[C@@H](C)CC)C(C)C)C(C)C)C(=O)NCC(=O)NCC(N)=O)C(=O)O)C(=O)O [compound 183] | 64 | 18 | 40.9 | ≥ 27 | ≥ 27 | ≥ 27 | ≥ 27
CCCCCCCCCCCCCCCCCC(=O)NCCCCCC(=O)NCCCC[C@H](NC(=O)[C@@H](NC(=O)[C@@H](NC(=O)[C@](C)(Cc1ccccc1)NC(=O)[C@H](C)NC(=O)[C@@H](NC(=O)[C@](C)(Cc1ccccc1)NC(=O)[C@H](CCC(=O)O)NC(=O)[C@](C)(CCCCN)NC(=O)[C@H](C)NC(=O)[C@H](C)NC(=O)[C@H](CCC(=O)O)NC(=O)CNC(=O)[C@H](CCC(=O)O)NC(=O)[C@H](CC(C)C)NC(=O)[C@](C)(Cc1ccccc1)NC(=O)[C@H](CO)NC(=O)[C@](C)(CO)NC(=O)[C@@H](NC(=O)[C@H](CC(=O)O)NC(=O)[C@H](CO)NC(=O)[C@@H](NC(=O)[C@](C)(Cc1ccccc1)NC(=O)[C@H](CO)NC(=O)CNC(=O)[C@H](CCC(=O)O)NC(=O)C(C)(C)NC(=O)[C@@H](N)Cc1c[nH]cn1)[C@@H](C)O)C(C)C)[C@@H](C)CC)C(C)C)C(C)C)C(=O)NCC(=O)NCC(N)=O [compound 185] | 380 | 120 | 251 | ≥ 28 | ≥ 28 | ≥ 28 | ≥ 28
CCCCCCCCCCCCCCCCCC(=O)NCCCCCC(=O)NCCCCCC(=O)NCCCC[C@H](NC(=O)[C@@H](NC(=O)[C@@H](NC(=O)[C@](C)(Cc1ccccc1)NC(=O)[C@H](C)NC(=O)[C@@H](NC(=O)[C@](C)(Cc1ccccc1)NC(=O)[C@H](CCC(=O)O)NC(=O)[C@](C)(CCCCN)NC(=O)[C@H](C)NC(=O)[C@H](C)NC(=O)[C@H](CCC(=O)O)NC(=O)CNC(=O)[C@H](CCC(=O)O)NC(=O)[C@H](CC(C)C)NC(=O)[C@](C)(Cc1ccccc1)NC(=O)[C@H](CO)NC(=O)[C@](C)(CO)NC(=O)[C@@H](NC(=O)[C@H](CC(=O)O)NC(=O)[C@H](CO)NC(=O)[C@@H](NC(=O)[C@](C)(Cc1ccccc1)NC(=O)[C@H](CO)NC(=O)CNC(=O)[C@H](CCC(=O)O)NC(=O)C(C)(C)NC(=O)[C@@H](N)Cc1c[nH]cn1)[C@@H](C)O)C(C)C)[C@@H](C)CC)C(C)C)C(C)C)C(=O)NCC(=O)NCC(N)=O [compound 186] | 130 | 50 | 87.5 | ≥ 27 | ≥ 27 | ≥ 27 | ≥ 27
